Experiments:
[1] = target: T1, Bcl-xL-Beclin 1 20-mer complex (Homo sapiens, UniProt Q07817); assay: FP competitive binding assay (disruption of Bcl-xL-20-mer complex); conditions: 50 nM 20-mer, 2 μM Bcl-xL
T1 construct: made in house
Procedure: Figure 1 FP-based HTS for Beclin 1 mimetics (A) Schematic presentation of the Beclin 1 protein and sequences of five synthetic peptides modified from Beclin 1 BH3 peptide. Diagram of human Beclin 1 protein with different domains is shown in the bottom. BH3 domain is necessary and sufficient for interaction with Bcl-2/Bcl-xL. Amino acids in red are the critical residues for the binding. (B) Five fluorescein-labeled Beclin 1 BH3 peptides were tested for their binding ability to Bcl-xL protein in FP assay. Fluorescein-labeled Bak BH3 peptide was used as a positive control. Bcl-xL protein was titrated to a solution of 50 nM peptides. (C) Competitive binding assay with positive controls, ABT-263 and (–)-gossypol ((–)G). […] (D–E) HTS was performed with ~50000 compounds from Prestwick, Microsource, CMLD and Chembridge libraries. The four libraries were divided into two groups and screened separately. Compounds activity (percent of inhibition) of first screen (D) and second screen (E) were shown with Z′ value indicated on top. Plate median + 3SD was used as a threshold to determine the initial hits.
Bcl-xL protein was immobilized on the sensor chip with 10000 RU.
All N′-fluorescein-labeled peptides were purchased from Kansas State University (Manhattan, KS). […] 16mer Bak ([…]) sequence was from published literature. Bcl-xL protein (25 kDa, > 90% pure based on SDS–PAGE) was expressed and purified in Protein Product Group, University of Kansas. FP assays were carried out as described in our previous publication with some modified. […] Then, fluorescein-labeled peptide was added to each well with a final concentration of 50 nM and incubated at room temperature for 30 min. Anisotropy measurements were taken at room temperature using a BioTek Synergy H4 plate reader (Biotek, Winooski, VT) following the protocol recommended by the manufacture. The Kd was estimated by nonlinear regression to a one-site binding model using GraphPad Prism 5.0 (GraphPad, San Diego, CA). […] Compound solvent DMSO only was used as a negative control in the competition assay. After 2 h incubation, the plate was read and polarization was calculated.

DU145 = assay: MTT-based cytotoxicity assay, DU145; conditions: Homo sapiens, DU-145, averages of at least two independent experiments, read-out: Cytotoxicity in different cell lines (IC50, μM) DU145
From the text: (§1) Human prostate cancer cell lines PC-3 and DU145, were purchased from American Type Culture Collection (ATCC) and used within 50 passages. PC-3a is a derivative of PC-3 that is resistant to chemo/radiotherapy, established in our lab and confirmed by genotyping. All cells were maintained in DMEM (Mediatech, Manassas, VA) supplemented with 10% fetal bovine serum (FBS) (Sigma-Aldrich, St. Louis, MO), 1% Glutamine (Mediatech, Manassas, VA), 1% antibiotics (Mediatech, Manassas, VA). Compounds for primary FP-based HTS screening were from Prestwick, Microsource, University of Kansas Center of Excellence in Chemical Methodologies & Library Development (KU CMLD, Lawrence, KS), and Chembridge libraries. Compounds for MTT and SPR validation experiment were purchased from Microsource (Gaylordsville, CT) and Hit2lead Company (San Diego, CA). Acridine analogues, compound 1–6, were from our in-house library (provided by Specialized Chemistry Center, University of Kansas, Lawrence, KS); compound 7–17 were synthesized as described in supplementary information. (–)-Gossypol was isolated from racemic gossypol as we previously described. ABT-263 and DMSO were purchased from Sigma. MTT-based cytotoxicity assay and western blot analysis was carried out according to our previous publications. The primary antibodies used were LC3B (#2775) (Cell signaling Technology, Danvers, MA) and β-actin (A5441) (Sigma).

[2] = system: DU145, PC-3a and PC-3 prostate cancer cell lines; assay: MTT-based cytotoxicity assay, all three prostate cancer cell lines; set-up: species or system Human; conditions: for IC50: Homo sapiens, DU-145, MTT, DU145, PC-3a and PC-3, read-out: cytotoxicity IC50, stated for all three cell lines together; for fold difference in IC50 value, PC-3 and PC-3a versus DU145: higher cytotoxicity in PC-3 and PC-3a than in DU145
From the text: We also tested the cytotoxicity of the 17 compounds in human prostate cancer cell lines by MTT assay (Table 1).
as §1, with “PC-3a is a derivative of PC-3 that is resistant to chemo/radiotherapy, established in our lab and confirmed by genotyping.” left out, “Acridine analogues, compound 1–6, were from our in-house library (provided by Specialized Chemistry Center, University of Kansas, Lawrence, KS); compound 7–17 were synthesized as described in supplementary information.” left out

Bcl-xL protein = target: T2, Bcl-xL protein (Homo sapiens, UniProt Q07817); assay: Surface plasmon resonance assay, immobilized Bcl-xL; assay type: binding; conditions: for binding level to Bcl-xL protein in SPR: 10 μM compound, Bcl-xL immobilized 10000 RU
T2 construct: made in house
Procedure: (§2) The surface plasmon resonance experiments were performed using a Biacore 3000 (GE Healthcare Pittsburgh, PA) equipped with a research-grade CM5 sensor chip. The ligand (Bcl-xL) was immobilized using amine-coupling chemistry. The surfaces of flow cells on a Biacore sensor chip CM5 were activated for 7 min with a 1:1 mixture of 0.1 M NHS (N-hydroxysuccinimide) and 0.1 M EDC (3-(N,N-dimethylamino) propyl-N-ethylcarbodiimide) at a flow rate of 5 μL/min. The ligand (Bcl-xL) at a concentration of 180 μg/mL in 10 mM sodium acetate, pH 4.5, was immobilized at a density of about 10000 RU on flow cell 2; the ligand (SUMO-Bcl-2, 37.5 kDa, > 90% pure based on SDS–PAGE) at a concentration of 44 μg/ml in 10 mM sodium acetate, pH 4.5, was immobilized at a density of 10000 RU on flow cell 3; flow cell 1 was left blank to serve as a reference surface. All the surfaces were blocked with a 7 min injection of 1 M ethanolamine, pH 8.0.
(§3) For kinetic analysis, a concentration series of analyte were injected over the flow cells at a flow rate of 60 μL/min at 20 °C. The complex was allowed to associate and dissociate for 120 and 180 s, respectively. For binding studies, analyte (or test compound) was injected over the two flow cells in duplicate at indicated concentration at a flow rate of 60 μL/min at 20 °C. The running buffer consisted of 20 mM HEPES, 150 mM NaCl, 3 mM EDTA, 1 mM DTT, 0.05% P20, 5% DMSO, pH 7.4. The complex was allowed to associate and dissociate for 120 and 180 s, respectively. The buffer samples containing a range of 4–6% DMSO were injected at the beginning, used for solvent correction. The surfaces were regenerated between binding cycles with a 5 s injection of 5 mM NaOH for compounds and 10 mM Glycine pH 2.5 for 20-mer.
All measurements were taken with flow cell 1 as a reference (i.e. sensorgram depicts “2–1 correction”) and corrected for DMSO bulk differences via the calibration curves. To obtain kinetic rate constants (Ka and Kd), corrected response data were fit to a simple 1:1 interaction model using local fit (includes correction for mass transport limitations) available within Biaevaluation 3.1 software or Scrubber2 software. The equilibrium dissociation constant (KD) was determined by Kd/Ka.

PC-3a = assay: MTT-based cytotoxicity assay, PC-3a; conditions: Homo sapiens, averages of at least two independent experiments, read-out: Cytotoxicity in different cell lines (IC50, μM) PC-3a
From the text: as §1

PC-3 = assay: MTT-based cytotoxicity assay, PC-3; conditions: Homo sapiens, averages of at least two independent experiments, read-out: Cytotoxicity in different cell lines (IC50, μM) PC-3
From the text: as §1

[3] = target: Bcl-2 protein (SUMO-Bcl-2) (Homo sapiens, UniProt P10415); assay: Surface plasmon resonance assay, immobilized Bcl-2; assay type: binding
Procedure: as §2, §3
All measurements were taken with flow cell 1 as a reference (i.e. sensorgram depicts “2–1 correction”) and corrected for DMSO bulk differences via the calibration curves. […] The equilibrium dissociation constant (KD) was determined by Kd/Ka.

[4] = system: PC-3 and PC-3a prostate cancer cells; assay: Western blot of autophagy markers (LC3 conversion, P62); assay type: cell-based, Human
Procedure: Figure 5 Acridine compounds induce autophagy in prostate cancer cells (A) LC3-II conversion in western blot analysis indicated the activity of autophagy. Cells were treated with DMSO or compounds for 24 h, and then lysed and processed for western blot analysis of LC3. (–)G and EBSS were used as positive controls. […] Yellow puncta indicate autophagosome (overlay of red and green fluorescence); red puncta indicate autolysosome (due to green fluorescence quenching at the acidic condition). Cells expressing RFP-GFP-LC3 were treated with compounds A13, A15 or A21 at indicated concentration for 24 h.
Figure 8 Acridine compounds induce autophagy in PC-3 and PC-3a cancer cells LC3-II conversion in western blot analysis indicated the activity of autophagy. Cells were treated with DMSO or compounds for 24 h, and then lysed and processed for western blot analysis of LC3. (–)G and EBSS were used as positive controls.
as §1

Bcl-2 protein (SUMO-Bcl-2), sequence (P10415 1-211 limits assumed): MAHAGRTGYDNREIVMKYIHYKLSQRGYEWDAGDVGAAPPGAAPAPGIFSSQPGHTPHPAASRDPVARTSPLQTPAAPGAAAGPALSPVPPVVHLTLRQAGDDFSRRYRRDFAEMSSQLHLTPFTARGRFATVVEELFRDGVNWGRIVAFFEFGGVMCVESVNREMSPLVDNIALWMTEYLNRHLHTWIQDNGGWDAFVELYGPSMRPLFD
T2 sequence (Q07817 whole entry): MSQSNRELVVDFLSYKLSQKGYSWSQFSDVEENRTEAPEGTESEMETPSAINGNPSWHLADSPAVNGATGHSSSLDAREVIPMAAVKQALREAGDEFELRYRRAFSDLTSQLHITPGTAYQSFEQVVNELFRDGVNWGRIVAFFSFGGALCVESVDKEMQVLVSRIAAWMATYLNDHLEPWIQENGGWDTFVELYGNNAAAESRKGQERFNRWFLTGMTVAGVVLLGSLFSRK
T1 sequence (Q07817 whole entry, one chain of several): as the sequence (Q07817 whole entry) above

Row | binding level to Bcl-xL protein in SPR (Bcl-xL protein; SPR) | SMILES | IC50 (DU145) | IC50 [2] | IC50 (PC-3a) | IC50 (PC-3) | other results
1 | almost no binding | COc1ccc2nc3cc(Cl)ccc3c(-c3ccc([N+](=O)[O-])cc3)c2c1 [Compound 14] | > 100 µM | > 100 µM | > 100 µM | > 100 µM | melting point: 207 to 211 °C
2 | almost no binding | COc1ccc2nc3cc(Cl)ccc3c(-c3ccc(F)cc3)c2c1 [Compound 15] | > 100 µM | > 100 µM | > 100 µM | > 100 µM | –

Continued, compound first:

Row | SMILES | binding level to Bcl-xL protein in SPR (Bcl-xL protein; SPR) | IC50 (DU145) | IC50 [2] | IC50 (PC-3a) | IC50 (PC-3) | other results
3 | CC(=O)O.Cc1cc2c(C(C)C)c(O)c(O)c(C=O)c2c(O)c1-c1c(C)cc2c(C(C)C)c(O)c(O)c(C=O)c2c1O [(–)-gossypol] | – | – | – | – | – | competitive displacement of fluorescent 20-mer [1]: capable of freeing out fluorescent 20mer
4 | CC1(C)CCC(c2ccc(Cl)cc2)=C(CN2CCN(c3ccc(C(=O)NS(=O)(=O)c4ccc(N[C@H](CCN5CCOCC5)CSc5ccccc5)c(S(=O)(=O)C(F)(F)F)c4)cc3)CC2)C1 [ABT-263] | – | – | – | – | – | competitive displacement of fluorescent 20-mer [1]: capable of freeing out fluorescent 20mer
5 | COc1ccc(CCNc2ncnc3ccccc23)cc1OC [Compound 3] | almost no binding | > 100 µM | > 100 µM | 82.7 ± 7.99 µM | – | –
6 | Nc1c2ccccc2nc2ccccc12 [Compound 5] | – | 2.78 ± 0.79 µM | 0.5 to 5 µM | 0.74 ± 0.45 µM | 0.79 ± 0.07 µM | fold difference in IC50 value, PC-3 and PC-3a versus DU145 [2]: 3–5 fold
7 | O=C(CSc1nc(=O)c2ccccc2[nH]1)c1ccc(O)c(O)c1 [Compound 6] | almost no binding | > 100 µM | > 100 µM | > 100 µM | > 100 µM | –
8 | CCN(CC)CCCCNc1c2ccc(Cl)cc2nc2ccc(OC)cc12 [Compound 7] | higher binding level than original hit A21 | 0.27 ± 0.13 µM | < 0.5 µM | 0.1 ± 0.05 µM | 0.11 ± 0.07 µM | kon ([3]; SPR kinetic analysis, 1:1 model, read-out: association rate (Ka) to Bcl-2): 3200 M⁻¹ s⁻¹; koff ([3]; SPR kinetic analysis, 1:1 model, read-out: dissociation rate (Kd) from Bcl-2): 0.51 s⁻¹; Kd ([3]; SPR, KD = Kd/Ka, read-out: equilibrium dissociation constant KD to immobilized Bcl-2): 160 µM; fold difference in IC50 value, PC-3 and PC-3a versus DU145 [2]: 3–5 fold; kon (Bcl-xL protein; SPR kinetic analysis, 1:1 model, read-out: association rate (Ka) to Bcl-xL): 29600 M⁻¹ s⁻¹; koff (Bcl-xL protein; SPR kinetic analysis, 1:1 model, read-out: dissociation rate (Kd) from Bcl-xL): 0.193 s⁻¹; Kd (Bcl-xL protein; SPR, KD = Kd/Ka, read-out: equilibrium dissociation constant KD to immobilized Bcl-xL): 6.5 µM; selectivity for Bcl-xL protein over Bcl-2 (Bcl-xL protein; from SPR KD values): about 25 fold; SQSTM1/P62 turnover [4]: degradation of P62; LC3-I to LC3-II conversion ([4]; 24 h treatment): triggered the conversion of LC3-I to LC3-II
9 | COc1ccc2nc3cc(Cl)ccc3c(N3CCN(C)CC3)c2c1 [Compound 9] | – | 6.24 ± 1.86 µM | – | 3.51 ± 1.15 µM | 2.93 ± 1.18 µM | melting point: 135 to 138 °C
10 | COc1ccc2nc3ccccc3c(-c3ccc([N+](=O)[O-])cc3)c2c1 [Compound 11] | almost no binding | > 100 µM | > 100 µM | > 100 µM | > 100 µM | –

Source: paper PMC5584254, “Identification of novel small molecule Beclin 1 mimetics activating autophagy” (Oncotarget, 2017)
